According to patent US20080039444A1, “COMPOUNDS” (GLAXO GROUP LIMITED, priority 2006, published 2008):

Tests used:
[1] = tested on: histamine-induced nasal congestion; experiment: Intranasal challenge method: whole body plethysmography, histamine-induced nasal congestion; assay type: in vivo, guinea pig; conditions: 24 hours after dosing, compared to azelastine; intranasal 1 mg/ml (FIG. 3, Example 24D)
Procedure: FIG. 3: depicts the duration of 4-[(4-chlorophenyl)methyl]-2-({(2R)-1-[4-(4-{[3-(hexahydro-1H-azepin-1-yl)propyl]oxy}phenyl)butyl]-2-pyrrolidinyl}methyl)-1(2H)-phthalazinone, dihydrochloride salt (Example 24D) and azelastine in a conscious Guinea-Pig model of histamine-induced nasal congestion. Animals were exposed to histamine at the time indicated after an intranasal dose of 1 mg/ml of compound. Mean ±s.e. mean (n=6-10 per group).
Intranasal Challenge Method: Whole Body Plethysmography
Female Dunkin-Hartley guinea pigs 150-250 g are sensitised twice daily for 5 days (week 1) with ovalbumin (OVA) and aluminium hydroxide (AI(OH)3 or Alum) in physiological saline, 25 μl/nostril. Solution is made up at 20 μg/ml OVA, 180 mg/ml Alum. During weeks 2 and 3, animals receive 25 μl/nostril of OVA (5 mg/ml) once daily. […]
Pretreatment with test compound is performed at various times prior to histamine challenge. Efficacy dose-response curves are determined 1 h after dosing whereas duration of action is studied up to 7 days post dose. […]
After the stipulated pre-dose time has been reached, guinea pigs are re-anaesthetised with isoflurane and dosed with either 15 mM histamine or phosphate-buffered saline (PBS), (25 μl per nostril). […] Data are analysed using ANOVA with post-hoc Fishers LSD test (general linear models, Statistica®) and finally Hochberg adjustment. […]

[2] = CNS penetration (intravenous bolus or infusion at steady state, blood and brain levels); assay type: in vivo, rat; conditions: male CD Sprague Dawley rats
Procedure: (i) CNS penetration by bolus administration
Compounds are dosed intravenously at a nominal dose level of 1 mg/kg to male CD Sprague Dawley rats. Compounds are formulated in 5% DMSO/45% PEG200/50% water. Blood samples are taken under terminal anaesthesia with isoflurane at 5 min post-dose and the brains are also removed for assessment of brain penetration. Blood samples are taken directly into heparinised tubes. Blood samples are prepared for analysis using protein precipitation and brain samples are prepared using extraction of drug from brain by homogenisation and subsequent protein precipitation. The concentration of parent drug in blood and brain extracts is determined by quantitative LC-MS/MS analysis using compound-specific mass transitions.
(ii) CNS penetration following intravenous infusion at steady state
A loading dose of the compounds is given to male CD Sprague Dawley rats at a nominal dose level of 0.4 mg/kg. The compounds are then infused intravenously for 4 h at a nominal dose level of 0.1 mg/kg/h. Compounds are formulated in 2% DMSO/30% PEG200/68% water. Serial or terminal blood samples are taken at 0.5, 1.5, 2.5, 3, 3.5 and 4 h post dose. The final blood sample is collected under terminal anaesthesia with isoflurane and the brains are also removed for assessment of brain penetration. Blood samples are taken directly into heparinised tubes. Blood samples are prepared for analysis using protein precipitation and brain samples are prepared using extraction of drug from brain by homogenisation and subsequent protein precipitation. The concentration of parent drug in blood and brain extracts is determined by quantitative LC-MS/MS analysis using compound-specific mass transitions.

[3] = target: T1, human H1 receptor (Homo sapiens, UniProt P35367); experiment: Histamine H1 functional antagonist assay (FLIPR): determination of antagonist pA2; assay type: cell-based
T1 construct: expressed in transfected cells
T1 sequence (P35367 whole entry): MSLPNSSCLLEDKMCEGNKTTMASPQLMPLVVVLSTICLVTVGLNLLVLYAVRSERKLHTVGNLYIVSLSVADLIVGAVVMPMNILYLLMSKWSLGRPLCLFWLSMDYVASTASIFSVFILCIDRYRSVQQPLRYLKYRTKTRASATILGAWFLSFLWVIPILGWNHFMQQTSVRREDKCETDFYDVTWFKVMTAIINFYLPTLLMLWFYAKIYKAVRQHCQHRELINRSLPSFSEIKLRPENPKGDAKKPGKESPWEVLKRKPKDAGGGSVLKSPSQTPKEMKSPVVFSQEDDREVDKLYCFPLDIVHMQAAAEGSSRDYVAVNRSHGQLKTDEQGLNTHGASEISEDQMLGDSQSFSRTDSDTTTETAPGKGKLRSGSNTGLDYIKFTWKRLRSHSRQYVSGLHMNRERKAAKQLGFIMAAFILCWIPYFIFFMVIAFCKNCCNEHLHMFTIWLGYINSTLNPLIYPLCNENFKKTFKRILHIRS
Procedure: The human H1 receptor is cloned using known procedures described in the literature [Biochem. Biophys. Res. Commun., 201(2):894 (1994)]. Chinese hamster ovary (CHO) cells stably expressing the human H1 receptor are generated according to known procedures described in the literature [Br. J. Pharmacol., 117(6):1071 (1996)].
Histamine H1 functional antagonist assay: Determination of antagonist pA2 and duration
The histamine H1 receptor expressing CHO cells are seeded into non-coated black-walled clear bottom 96-well tissue culture plates as described above. Following overnight culture, growth medium is removed from each well, washed with 200 μl phosphate buffered saline (PBS) and is replaced with 50 μl loading dye (250 μM Brilliant Black, 1 μM Fluo-4 diluted in Tyrodes buffer+probenecid (145 mM NaCl, 2.5 mM KCl, 10 mM HEPES, 10 mM D-glucose, 1.2 mM MgCl2, 1.5 mM CaCl2, 2.5 mM probenecid, pH adjusted to 7.40 with NaOH 1.0 M)). Cells are incubated for 45 min at 37° C. The loading buffer is removed and the cells are washed as above, and 90 μl of Tyrodes buffer+probenecid is added to each well. 10 μl of test compound, diluted to the required concentration in Tyrodes buffer+probenecid (or 10 μl Tyrodes buffer+probenecid as a control) is added to each well and the plate is incubated for 30 min at 37° C., 5% CO2. The plates are then placed into a FLIPR™ (Molecular Devices, UK) to monitor cell fluorescence (λex=488 nm, λEM=540 nm) in the manner described in Sullivan et al., (In: Lambert DG (ed.), Calcium Signaling Protocols, New Jersey: Humana Press, 1999, 125-136) before and after the addition of 50 μl histamine over a concentration range of 1 mM-0.1 nM. The resultant concentration response curves are analysed by non-linear regression using a standard four parameter logistic equation to determine the histamine EC50, the concentration of histamine required to produce a response of 50% of the maximum response to histamine. The antagonist pA2 is calculated using the following standard equation: pA2=log(DR-1)- log[B] where DR=dose ratio, defined as EC50antagonist-treated/EC50control and [B]=concentration of antagonist.

SMILES: O=c1c2ccccc2c(Cc2ccc(Cl)cc2)nn1C[C@H]1CCCN1CCCCc1ccc(OCCCN2CCCCCC2)cc1 [Example 24, 4-[(4-Chlorophenyl)methyl]-2-({(2R)-1-[4-(4-{[3-(hexahydro-1H-azepin-1-yl)propyl]oxy}phenyl)butyl]-2-pyrrolidinyl}methyl)-1(2H)-phthalazinone free base]
- inhibition of nasal congestion in the Guinea Pig whole body plethysmography model [1]: statistically significant inhibition of nasal congestion
- CNS penetration compared with azelastine [2]: lower CNS penetration than azelastine
- Kb [3]: ~1.26 nM
